Test results as given in patent US9662327B2 (AGIOS PHARMACEUTICALS, INC, priority 2011, dated 2017).

Target: IDH1 R132H (Homo sapiens (Human), UniProt O75874, R132H)
Assay: Assays for IDH1 R132H Inhibitors (NADPH/aKG, resazurin detection)
Format: biochemical
Settings: IDH1 R132H enzyme, Table 2; read-out: IDHR132H Activity
Procedure: Assays were conducted in a volume of […] assay buffer (150 mM NaCl, 10 mM MgCl2, 20 mM Tris pH 7.5, 0.03% bovine serum albumin) as follows in a standard 384-well plate: To 25 ul of substrate mix (8 uM NADPH, 2 mM aKG), 1 μl of test compound was added in DMSO. […] The reaction was incubated for 50 minutes at room temperature, then 25 μl of detection mix (30 μM resazurin, […]) was added and the mixture further incubated for 5 minutes at room temperature.

IDH1 R132H, sequence (O75874 whole entry R132H): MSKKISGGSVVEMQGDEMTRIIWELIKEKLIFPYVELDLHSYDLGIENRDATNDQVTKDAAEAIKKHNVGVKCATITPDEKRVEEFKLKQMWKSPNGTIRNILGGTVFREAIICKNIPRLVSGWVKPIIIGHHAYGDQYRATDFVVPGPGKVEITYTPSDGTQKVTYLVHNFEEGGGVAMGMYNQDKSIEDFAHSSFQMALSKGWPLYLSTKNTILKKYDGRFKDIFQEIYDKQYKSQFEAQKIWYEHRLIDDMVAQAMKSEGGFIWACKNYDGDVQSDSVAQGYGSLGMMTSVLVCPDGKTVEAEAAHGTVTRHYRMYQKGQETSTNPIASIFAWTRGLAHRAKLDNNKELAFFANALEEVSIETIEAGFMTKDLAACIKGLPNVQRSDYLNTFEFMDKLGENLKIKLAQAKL

## CC(C)c1nc(N2CCN(S(=O)(=O)c3cccs3)CC2)c(C#N)c2c1COCC2 [Compound 101]
  IC50: 1 to 10 µM

## CC(C)c1nc(N2CCN(C(=O)Nc3ccc(F)cc3)CC2)c(C#N)c2c1COCC2 [Compound 102, 4-(5-cyano-8-isopropyl-3,4-dihydro-1H-pyrano[3,4-c]pyridin-6-yl)-N-(4-fluorophenyl)piperazine-1-carboxamide]
  IC50: 1 to 10 µM

## COc1ccc(OC(=O)N2CCN(c3nc(C(C)C)c4c(c3C#N)CCOC4)CC2)cc1 [Compound 103, 4-methoxyphenyl 4-(5-cyano-8-isopropyl-3,4-dihydro-1H-pyrano[3,4-c]pyridin-6-yl)piperazine-1-carboxylate]
  IC50: 1 to 10 µM

## CC(C)c1nc(N2CCN(C(=O)c3c[nH]c4ccccc34)CC2)c(C#N)c2c1COCC2 [Compound 104, 6-(4-(1H-indole-3-carbonyl)piperazin-1-yl)-8-isopropyl-3,4-dihydro-1H-pyrano[3,4-c]pyridine-5-carbonitrile]
  IC50: 1 to 10 µM

## CC(C)c1nc(N2CCN(C(=O)c3ccc(Cl)c(Cl)c3)CC2)c(C#N)c2c1COCC2 [Compound 105, 6-(4-(3,4-dichlorobenzoyl)piperazin-1-yl)-8-isopropyl-3,4-dihydro-1H-pyrano[3,4-c]pyridine-5-carbonitrile]
  IC50: 1 to 10 µM

## CC(C)c1nc(N2CCN(C(=O)c3ccc(Cl)cc3Cl)CC2)c(C#N)c2c1COCC2 [Compound 106, 6-(4-(2,4-dichlorobenzoyl)piperazin-1-yl)-8-isopropyl-3,4-dihydro-1H-pyrano[3,4-c]pyridine-5-carbonitrile]
  IC50: 1 to 10 µM

## CC(C)c1nc(N2CCN(C(=O)NC3CCCCC3)CC2)c(C#N)c2c1COCC2 [Compound 107, 4-(5-cyano-8-isopropyl-3,4-dihydro-1H-pyrano[3,4-c]pyridin-6-yl)-N-cyclohexylpiperazine-1-carboxamide]
  IC50: 1 to 10 µM

## CC(C)c1nc(N2CC(C)N(C(=O)NC3CCCCC3)C(C)C2)c(C#N)c2c1COCC2 (stereo not shown) [Compound 108, 4-(5-cyano-8-isopropyl-3,4-dihydro-1H-pyrano[3,4-c]pyridin-6-yl)-N-cyclohexyl-2,6-dimethylpiperazine-1-carboxamide]
  IC50: 1 to 10 µM

## CC(C)c1nc(N2C[C@@H](C)N(C(=O)NC3CCCCC3)[C@@H](C)C2)c(C#N)c2c1CCCC2 [Compound 109, (2S,6R)-4-(4-cyano-1-isopropyl-5,6,7,8-tetrahydroisoquinolin-3-yl)-N-cyclohexyl-2,6-dimethylpiperazine-1-carboxamide]
  IC50: 1 to 10 µM

## N#Cc1c(N2CCN(C(=O)c3ccco3)CC2)nc(C2CCCCC2)c2c1CCOC2 [Compound 110, 8-cyclohexyl-6-(4-(furan-2-carbonyl)piperazin-1-yl)-3,4-dihydro-1H-pyrano[3,4-c]pyridine-5-carbonitrile]
  IC50: 1 to 10 µM

## CC(C)c1nc(N2CCN(C(=O)c3ccco3)CC2c2ccccc2)c(C#N)c2c1COCC2 (stereo not shown) [Compound 111, 6-(4-(furan-2-carbonyl)-2-phenylpiperazin-1-yl)-8-isopropyl-3,4-dihydro-1H-pyrano[3,4-c]pyridine-5-carbonitrile]
  IC50: 1 to 10 µM

## Cc1ccc(-c2nc(N3CC(C)N(C(=O)c4ccco4)C(C)C3)c(C#N)c3c2COCC3)cc1 (stereo not shown) [Compound 112]
  IC50: 1 to 10 µM

## Cc1occc1C(=O)N1CCN(c2nc(C(C)C)c3c(c2C#N)CCOC3)CC1 [Compound 113, 8-isopropyl-6-(4-(2-methylfuran-3-carbonyl)piperazin-1-yl)-3,4-dihydro-1H-pyrano[3,4-c]pyridine-5-carbonitrile]
  IC50: 1 to 10 µM

## CC(C)c1nc(N2CC(C)N(C(=O)c3ccco3)CC2C)c(C#N)c2c1COCC2 (stereo not shown) [Compound 114, 6-(4-(furan-2-carbonyl)-2,5-dimethylpiperazin-1-yl)-8-isopropyl-3,4-dihydro-1H-pyrano[3,4-c]pyridine-5-carbonitrile]
  IC50: 1 to 10 µM

## CC(C)c1nc(N2CCN(C(=O)NC3CCCCC3)CC2)c(C#N)c2c1CCCC2 [Compound 115, 4-(4-cyano-1-isopropyl-5,6,7,8-tetrahydroisoquinolin-3-yl)-N-cyclohexylpiperazine-1-carboxamide]
  IC50: 1 to 10 µM

## CC(C)c1nc(N2CCN(C(=O)c3ccco3)CC2)c(C#N)c2c1CC(C)(C)CC2 [Compound 116, 3-(4-(furan-2-carbonyl)piperazin-1-yl)-1-isopropyl-7,7-dimethyl-5,6,7,8-tetrahydroisoquinoline-4-carbonitrile]
  IC50: 1 to 10 µM

## CC1(C)Cc2c(C#N)c(N3CCN(C(=O)c4ccco4)CC3)nc(C3CCCCC3)c2CO1 [Compound 117, 8-cyclohexyl-6-(4-(furan-2-carbonyl)piperazin-1-yl)-3,3-dimethyl-3,4-dihydro-1H-pyrano[3,4-c]pyridine-5-carbonitrile]
  IC50: 1 to 10 µM

## N#Cc1c(N2CCN(C(=O)c3c[nH]c4ccccc34)CC2)nc(C2CCCCC2)c2c1CCOC2 [Compound 118, 6-(4-(1H-indole-3-carbonyl)piperazin-1-yl)-8-cyclohexyl-3,4-dihydro-1H-pyrano[3,4-c]pyridine-5-carbonitrile]
  IC50: 1 to 10 µM

## N#Cc1c(N2CCN(C(=O)c3cccc4[nH]ccc34)CC2)nc(C2CCCCC2)c2c1CCOC2 [Compound 119, 6-(4-(1H-indole-4-carbonyl)piperazin-1-yl)-8-cyclohexyl-3,4-dihydro-1H-pyrano[3,4-c]pyridine-5-carbonitrile]
  IC50: 1 to 10 µM

## N#Cc1c(N2CCN(C(=O)c3ccoc3)CC2)nc(C2CCCCC2)c2c1CCOC2 [Compound 120, 8-cyclohexyl-6-(4-(furan-3-carbonyl)piperazin-1-yl)-3,4-dihydro-1H-pyrano[3,4-c]pyridine-5-carbonitrile]
  IC50: 1 to 10 µM

## Cc1cc(C(=O)N2CCN(c3nc(C4CCCCC4)c4c(c3C#N)CCOC4)CC2)c(C)o1 [Compound 121, 8-cyclohexyl-6-(4-(2,5-dimethylfuran-3-carbonyl)piperazin-1-yl)-3,4-dihydro-1H-pyrano[3,4-c]pyridine-5-carbonitrile]
  IC50: 1 to 10 µM

## N#Cc1c(N2CCN(C(=O)c3ccc4[nH]ccc4c3)CC2)nc(C2CCCCC2)c2c1CCOC2 [Compound 122, 6-(4-(1H-indole-5-carbonyl)piperazin-1-yl)-8-cyclohexyl-3,4-dihydro-1H-pyrano[3,4-c]pyridine-5-carbonitrile]
  IC50: 1 to 10 µM

## N#Cc1c(N2CCN(C(=O)c3ccc4cc[nH]c4c3)CC2)nc(C2CCCCC2)c2c1CCOC2 [Compound 123, 6-(4-(1H-indole-6-carbonyl)piperazin-1-yl)-8-cyclohexyl-3,4-dihydro-1H-pyrano[3,4-c]pyridine-5-carbonitrile]
  IC50: 1 to 10 µM

## N#Cc1c(N2CCN(C(=O)c3ccco3)CC2)nc(C2CCCC2)c2c1CCOC2 [Compound 124, 8-cyclopentyl-6-(4-(furan-2-carbonyl)piperazin-1-yl)-3,4-dihydro-1H-pyrano[3,4-c]pyridine-5-carbonitrile]
  IC50: 1 to 10 µM

## CC(C)c1nc(N2CCN(C(=O)c3ccco3)C(C)C2)c(C#N)c2c1CCCC2 (stereo not shown) [Compound 125, 3-(4-(furan-2-carbonyl)-3-methylpiperazin-1-yl)-1-isopropyl-5,6,7,8-tetrahydroisoquinoline-4-carbonitrile]
  IC50: 1 to 10 µM

## C[C@@H]1CN(c2nc(C3CCCC3)c3c(c2C#N)CCOC3)C[C@H](C)N1C(=O)c1ccco1 [Compound 126, 8-cyclopentyl-6-((3S,5R)-4-(furan-2-carbonyl)-3,5-dimethylpiperazin-1-yl)-3,4-dihydro-1H-pyrano[3,4-c]pyridine-5-carbonitrile]
  IC50: 1 to 10 µM

## C[C@@H]1CN(c2nc(C3CCCC3)c3c(c2C#N)CCOC3)C[C@H](C)N1C(=O)NC1CCCCC1 [Compound 127, (2S,6R)-4-(5-cyano-8-cyclopentyl-3,4-dihydro-1H-pyrano[3,4-c]pyridin-6-yl)-N-cyclohexyl-2,6-dimethylpiperazine-1-carboxamide]
  IC50: 1 to 10 µM

## C[C@@H]1CN(c2nc(C3CCCCC3)c3c(c2C#N)CCOC3)C[C@H](C)N1C(=O)c1ccco1 [Compound 128, 8-cyclohexyl-6-((3S,5R)-4-(furan-2-carbonyl)-3,5-dimethylpiperazin-1-yl)-3,4-dihydro-1H-pyrano[3,4-c]pyridine-5-carbonitrile]
  IC50: 1 to 10 µM

## Cc1ccoc1C(=O)N1CCN(c2nc(C3CCCCC3)c3c(c2C#N)CCOC3)CC1 [Compound 129, 8-cyclohexyl-6-(4-(3-methylfuran-2-carbonyl)piperazin-1-yl)-3,4-dihydro-1H-pyrano[3,4-c]pyridine-5-carbonitrile]
  IC50: 1 to 10 µM

## CC1CN(c2nc(-c3cccc(F)c3)c3c(c2C#N)CC(C)(C)OC3)CCN1C(=O)c1ccoc1 (stereo not shown) [Compound 130, 8-(3-fluorophenyl)-6-(4-(furan-3-carbonyl)-3-methylpiperazin-1-yl)-3,3-dimethyl-3,4-dihydro-1H-pyrano[3,4-c]pyridine-5-carbonitrile]
  IC50: 1 to 10 µM

## N#Cc1c(N2CCN(C(=O)Cc3ccccc3)CC2)nc(C2CCCCC2)c2c1CCOC2 [Compound 131, 8-cyclohexyl-6-(4-(2-phenylacetyl)piperazin-1-yl)-3,4-dihydro-1H-pyrano[3,4-c]pyridine-5-carbonitrile]
  IC50: 1 to 10 µM

## CC1CN(c2nc(C3CCCCC3)c3c(c2C#N)CCOC3)CCN1C(=O)c1ccco1 (stereo not shown) [Compound 132, 8-cyclohexyl-6-(4-(furan-2-carbonyl)-3-methylpiperazin-1-yl)-3,4-dihydro-1H-pyrano[3,4-c]pyridine-5-carbonitrile]
  IC50: 1 to 10 µM

## CC1CN(c2nc(C3CCCCC3)c3c(c2C#N)CCOC3)CCN1C(=O)c1ccoc1 (stereo not shown) [Compound 133, 8-cyclohexyl-6-(4-(furan-3-carbonyl)-3-methylpiperazin-1-yl)-3,4-dihydro-1H-pyrano[3,4-c]pyridine-5-carbonitrile]
  IC50: 1 to 10 µM

## CC1CN(c2nc(C3CCCCC3)c3c(c2C#N)CCOC3)CCN1C(=O)c1ccc2[nH]ccc2c1 (stereo not shown) [Compound 134, 6-(4-(1H-indole-5-carbonyl)-3-methylpiperazin-1-yl)-8-cyclohexyl-3,4-dihydro-1H-pyrano[3,4-c]pyridine-5-carbonitrile]
  IC50: 1 to 10 µM
